What was measured:
[1] = system: HCT116, A2780, A549, and MCF7 cell lines; set-up: method as in PMID 28702618; settings: cited from earlier work
[2] = system: HCT116DoxR (Dox-resistant colorectal carcinoma cell line); assay: MTS cell viability assay, 2D culture, HCT116DoxR; settings: read-out: IC50 (μM) HCT116DoxR, 48 h of exposure
Experimental: (§1) The in vitro cytotoxic potential of Cu(II) complexes in tumor and healthy cells was assessed using the MTS assay, a colorimetric method that allows the quantification of viable cells in culture.[46]
In this regard, cell viability was performed for each of the ligands on HCT116DoxR and fibroblasts.
Cell culture and maintenance
(§2) The cancer cell lines HCT116 (colorectal carcinoma) and A2780 (ovarian carcinoma) were obtained
(§3) from the American Type Culture Collection (ATCC®, Manassas, VA, USA), as well as the normal
human primary dermal fibroblasts.
(§4) Apart from the A2780 cell line, which was cultured in Roswell Park Memorial Institute (RPMI)
(§5) medium, all cells were cultured in Dulbecco’s modified Eagle medium (DMEM). Both media were
(§6) supplemented with 10% (v/v) fetal bovine serum (FBS) and 1% (v/v) of a Pen/Strep
(§7) (Penicillin/Streptomycin) solution. To maintain the resistant phenotype of the HCT116DoxR cell line,
(§8) the medium was additionally supplemented with 3.6 μM Dox4. All media and supplements were
(§9) purchased from Thermo Fischer Scientific (Waltham, MA, USA).
(§10) Cells were maintained in 25 cm2 T-flasks (T25) in a humidified atmosphere at 37 °C and 5% (v/v) CO
(§11) (SANYO CO2 Incubator, Electric Biomedical Co., Osaka, Japan).
(§12) The effect of Cu(II) complexes on cell viability was studied in HCT116, HCT116DoxR, and A2780
(§13) cancer cell lines and in normal human primary fibroblasts. Cells were seeded in a density of 0.75×105
(§14) cells/mL into 96-well plates and incubated in a humidified atmosphere at 37 °C and 5% (v/v) CO2 for
(§15) 24 h. After incubation, complexes were weighed, immediately solubilized in 100% (v/v) DMSO and
(§16) diluted for the final concentration with cell culture medium. The medium in each well was replaced by
(§17) a solution of fresh medium containing each Cu(II) complex (concentrations ranging from 0.01 μM to
(§18) as negative and positive controls, respectively.
(§19) Following a second incubation period of 48 h in the same conditions, the supernatant of each well was
(§20) replaced by a solution containing MTS reagent (3-(4,5-dimethylthiazol-2-yl)-5-(3-
(§21) carboxymethoxyphenyl)-2-(4-sulfophenyl)-2H-tetrazolium) provided by the CellTiter 96® AQueous
(§22) Non-Radioactive Cell Proliferation Assay Kit (Promega, Madison, WI, EUA) for a 30 minutes
(§23) incubation. The percentage of viable cells was indirectly determined by the spectrophotometric
(§24) quantification at 490 nm in a microplate reader, Tecan Infinite M200 (Tecan, Männedorf, Switzerland)
(§25) of formazan production, resultant from the reduction of the MTS reagent by mitochondrial
(§26) dehydrogenases. Since these enzymes are only active in viable cells, the absorbance value measured is
(§27) directly proportional to the percentage of viable cells in culture5.

[3] = system: pUC18 plasmid DNA; assay: pDNA cleavage in vitro (agarose gel electrophoresis); format: biochemical, E. coli; settings: for concentration at which the interaction with pDNA reaches saturation / pDNA cleavage mode: 100 ng pUC18, 24 h; for pDNA cleavage mode: 5–100 μM complex; for effect of NaN3 (singlet oxygen scavenger) on pDNA cleavage by the complex: 24 h, 50 μM complex + 50 μM NaN3
[4] = system: HCT116 (colorectal carcinoma cell line); assay: MTS cell viability assay, 2D culture, HCT116; format: cell-based, human; settings: 48 h of exposure
Experimental: as §1
Cell culture and maintenance
as §2, §3
human primary dermal fibroblasts.
as §4, §5, §6, §7, §8, §9, §10, §11, §12, §13, §14, §15, §16, §17, §18, §19, §20, §21, §22, §23, §24, §25, §26, §27
(§28) By analysing the cell viability as a function of log10(concentration) using Prism 8 (GraphPad
(§29) in cell viability) of each complex in the respective cell line at 48 h. The selective index (SI) for each
(§30) complex was also determined by dividing the IC50 of human fibroblasts by the respective IC50 in each
(§31) cancer cell line (allowing us to understand how much active a complex is in tumor versus normal cell).

[5] = Stability and solubility in biological medium (RPMI) by UV-vis; format: physicochemical; settings: colorless RPMI, 50 μM, 37 °C
Experimental: The stability of complexes 2, 3, 5, and 7 was assessed by UV–vis spectroscopy at 0, 24, and 48 h of incubation at 37 °C.
In Figure S18, it is possible to observe the spectra of all Cu(II) complexes, where high-energy absorption bands correspond to π → π* and n → π* transitions with peaks in the 230–330 and 330–400 nm ranges, respectively, that are associated with the aromatic rings of terpyridines.[39],[49] Analyzing the spectra of complexes 2 and 3, it is possible to detect the existence of 3 bands (maximum ∼240, ∼ 290, and between 320 and 340 nm). […] Complex 7 only has 2 bands of maximum absorbance at 290 nm and between 320 and 340 nm.
Nevertheless, all Cu(II) complex solutions were freshly prepared and added immediately to cells.

[6] = system: chicken embryos; assay: Ex-ovo chick chorioallantoic membrane (CAM) assay; format: in vivo; settings: IC50, vs DMSO control
[7] = system: HCT116DoxR cells; assay: Cell cycle progression (PI, flow cytometry); settings: for cell cycle progression after 12 h / cell cycle progression after 18 h: IC50, thymidine double block; for cell cycle progression after 24 h: complexes at IC50, cisplatin 5 μM
From the text: Therefore, we have assessed the cytostatic potential of complexes 2, 3, 5, and 7, and their ability to interfere with the progression of the cell cycle using the fluorescent marker PI. Since this marker can intercalate with DNA, the measurement of the fluorescence emitted by flow cytometry makes it possible to assess the DNA content at each stage of the cell cycle (G0/G1, S, and G2/M).[67] To ensure that all the cells were in the same phase before their exposure to the complexes, a double block was carried out with thymidine, a DNA synthesis inhibitor.[67]
HCT116DoxR cell line was seeded in 6-well plates in a density of 1×10^5 cells/mL and incubated for
24 h. Afterwards, the culture medium was replaced by medium with IC50 concentrations of different
HCT116DoxR cell line was seeded in 6-well plates in a density of 1×10^5 cells/mL, incubated for 8 h in
a humidified atmosphere at 37 °C and 5% (v/v) CO2, and later synchronized in early S-phase with a 2
mM thymidine solution (Merck, Germany) for a 16 h period. Later, medium with thymidine was
replaced by fresh media and, after 8 h a second block with thymidine was performed in the same
concentrations of Cu(II) complexes. 0.1% (v/v) DMSO was used as the vehicle control while 5 μM
After treatment, cells were incubated for 9, 12,

[8] = system: HCT116DoxR spheroids; assay: MTS cell viability assay in 3D HCT116DoxR spheroids; format: cell-based, human; settings: 6-day-old spheroids, 48 h of exposure
[9] = system: A2780 (ovarian carcinoma cell line); assay: MTS cell viability assay, 2D culture, A2780; format: cell-based, human; settings: 48 h of exposure
Experimental: as §1
Cell culture and maintenance
as §2, §3
human primary dermal fibroblasts.
as §4, §5, §6, §7, §8, §9, §10, §11, §12, §13, §14, §15, §16, §17, §18, §19, §20, §21, §22, §23, §24, §25, §26, §27, §28, §29, §30, §31

[10] = system: BAX and BCL-2; assay: BAX and BCL-2 protein expression by Western Blot; format: cell-based, human; settings: HCT116DoxR, 48 h, IC50; normalized to β-actin
[11] = system: fibroblasts; assay: Cell migration (wound healing) assay; format: cell-based, human; settings: 24 h; complexes at IC50, Dox 0.4 μM; vs DMSO
From the text: A wound healing assay was therefore carried out on fibroblasts to study the influence of the Cu(II) complexes on cell migration in vitro. Skin fibroblasts were the model chosen for this assay as they are essential for regenerating damage in this tissue.[85] […]
intrinsic binding constant Kb can be obtained from the ratio of the slope to the intercept of the linear fit of the plot [DNA]/[εa−εf] versus [DNA].
For emission quenching experiments, equimolar solution of ct-DNA and ethidium bromide (EB, Sigma Aldrich) was prepared and allowed to incubate for 2 h in the dark. The tested complexes were titrated into the formed EB–ct-DNA adduct and incubated for additional 30 min. The final concentration of the EB–ct-DNA adduct was 50 μM and the concentration of the complexes varied from 0 to 40 μM. The fluorescence spectra were recorded on FLS-980 spectrofluorometer (Edinburgh Instruments, Livingston, United Kingdom) with excitation wavelength 515 nm and emission wavelength of 620 nm. The apparent binding constant (Kapp) was calculated using the Equations : […]
where I0 and I are the fluorescence intensity in the absence and presence of the complexes; KSV is the Stern-Volmer quenching constant; [Q] is the concentration of the complexes; [Q1/2] is the concentration of the complex causing 50% reduction in the fluorescence intensity; K = 1×107 […]
conditions mentioned before until the presence of a confluent monolayer was detected. A scratch was made on the surface of each well using a sterile 200 μL micropipette tip and the cells were […]
Each plate was then incubated for 24 h in the same conditions mentioned before. […]
The width of each scratch in each image was measured via ImageJ software. […]
The ex-ovo CAM assay was performed to evaluate the copper(II) complexes’ effect on angiogenesis, as already described in literature11,12. […] Newly formed blood vessels were manually counted via ImageJ software. […]
All results were expressed as mean ± SEM of at least two independent biological assays, each obtained by technical duplicates, unless otherwise specified. […]

[12] = system: normal human primary dermal fibroblasts; assay: MTS cell viability assay, normal fibroblasts; format: cell-based; settings: 48 h of exposure
Experimental: as §1
Cell culture and maintenance
as §2, §3
human primary dermal fibroblasts.
as §4, §5, §6, §7, §8, §9, §10, §11, §12, §13, §14, §15, §16, §17, §19, §20, §22, §23, §24, §25

[13] = system: HCT116DoxR cells; assay: Annexin V-FITC/PI apoptosis assay by flow cytometry; settings: 48 h; for cells (%) early apoptosis / cells (%) late apoptosis / cells (%) necrosis / cells (%) viable / percentage of apoptosis (early + late): complexes at IC50, Dox 6 μM, cisplatin 5 μM; for fold increase in apoptotic cells, normalized to DMSO: complexes at IC50, cisplatin 5 μM
Experimental: To evaluate the cell death mechanism involved in the cytotoxic effect of the selected complexes, a double-staining with Annexin V-FITC and PI was performed. […] The use of Annexin V conjugated with the fluorophore FITC allows the quantification of this interaction and subsequent identification of cells in apoptosis by flow cytometry. Furthermore, PI is a fluorophore that can intercalate with DNA and that can only enter the cell when the membrane is either compromised or ruptured, making it possible to identify cells undergoing late apoptosis and necrosis. Therefore, the double staining makes it possible to distinguish between viable cells (FITC^–; IP^–), those undergoing initial apoptosis (FITC^+; IP^–), those undergoing late apoptosis (FITC^+; IP^+), and those undergoing necrosis (FITC^–; IP^+).[55],[58]
Evaluation of apoptosis induction in HCT116DoxR cell line by flow cytometry The induction of apoptosis in HCT116DoxR cell line was evaluated by flow cytometry, using the
Annexin V-FITC Apoptosis Detection Kit (Thermo Fisher Scientific, Waltham, MA, USA). Cells
were seeded in 6-well plates at a cell density of 1×10^5 cells/mL and incubated for 24 h. Afterwards,
culture medium was replaced by medium with different Cu(II) complexes at their IC50 concentrations.
After 48 h of incubation, cells were washed with PBS 1x, detached from each well with TrypLETM
Express and washed again with PBS 1x. Cells were then resuspended in 1x annexin-binding buffer and
incubated at rt for 15 min with Annexin V-FITC and 100 μg/mL PI.
All samples were analysed by an Attune® Acoustic Focusing Flow Cytometer (Thermo Fischer
Scientific, Waltham, MA, USA) and the results were processed with Attune® Cytometric software

[14] = system: EB–ct-DNA adduct; assay: Ethidium bromide displacement fluorescence assay; format: binding, calf; settings: PBS; for apparent binding constant (Kapp): EB displacement, KEB = 1 × 10^7 M^–1; for Stern–Volmer quenching constant KSV: EB–ct-DNA, 0–40 μM complex

Cn1cccc1-c1cc(-c2ccccn2)nc(-c2ccccn2)c1.[Cl][Cu][Cl]
cytotoxic activity [1]: no cytotoxic activity

F[P-](F)(F)(F)(F)F.F[P-](F)(F)(F)(F)F.[Cl][Cu].[Cl][Cu].c1ccc(-c2cc(-c3ccco3)cc(-c3ccccn3)n2)nc1.c1ccc(-c2cc(-c3ccco3)cc(-c3ccccn3)n2)nc1 [complex 5, [Cu2Cl2(4′-(2-Furanyl)-terpy)2](PF6)2]
IC50 [2]: 0.22 ± 0.01 µM
concentration at which the interaction with pDNA reaches saturation [3]: 50 μM
pDNA cleavage mode [3]: single and double strands
effect of NaN3 (singlet oxygen scavenger) on pDNA cleavage by the complex [3]: almost completely reversed
IC50 [4]: 0.26 ± 0.03 µM
maximum absorbances after 24 or 48 h compared to 0 h (reduction of solubility) [5]: slight decrease
formation of new blood vessels after 24 h [6]: antiangiogenic potential
formation of new blood vessels after 48 h [6]: greater decrease in the % of blood vessels formed
cell cycle progression after 12 h [7]: delays cell cycle progression in the G2/M phase
cell cycle progression after 18 h [7]: delay in cycle progression in the G0/G1 phase
IC50 [8]: 14 ± 0.6 µM
IC50 [9]: 0.79 ± 0.05 µM
expression of BAX compared to the DMSO control [10]: decreases
expression of BCL-2 compared to the DMSO control [10]: increases
fibroblast migration (% of remission) [11]: lower compared to the positive control Dox
IC50 [12]: 12.57 ± 0.02 µM
cells (%) early apoptosis [13]: 47.2 ± 10.2%
cells (%) late apoptosis [13]: 18.7 ± 5.4%
cells (%) necrosis [13]: 0.2 ± 0.2%
cells (%) viable [13]: 33.9 ± 5.3%
percentage of apoptosis (early + late) [13]: 65 to 70%
fold increase in apoptotic cells, normalized to DMSO [13]: ~6.4 fold
apparent binding constant (Kapp) [14]: 1.84 × 10^6 M^–1
Stern–Volmer quenching constant KSV [14]: 3640 M⁻¹

F[P-](F)(F)(F)(F)F.F[P-](F)(F)(F)(F)F.[Cl][Cu].[Cl][Cu].c1ccc(-c2cc(-c3ccnc4ccccc34)cc(-c3ccccn3)n2)nc1.c1ccc(-c2cc(-c3ccnc4ccccc34)cc(-c3ccccn3)n2)nc1 [complex 2, [Cu2Cl2(4′-(4-Quinolyl)-terpy)2](PF6)2]
IC50 [2]: 0.25 ± 0.02 µM
concentration at which the interaction with pDNA reaches saturation [3]: 25 μM
pDNA cleavage mode [3]: single strands
effect of NaN3 (singlet oxygen scavenger) on pDNA cleavage by the complex [3]: no effect
IC50 [4]: 0.31 ± 0.01 µM
maximum absorbances after 24 or 48 h compared to 0 h (reduction of solubility) [5]: slight decrease
formation of new blood vessels after 24 h [6]: no pro- or antiangiogenic effect
formation of new blood vessels after 48 h [6]: antiangiogenic effect
cell cycle progression after 12 h [7]: delays cell cycle progression in the G2/M phase
cell cycle progression after 24 h [7]: delay the cycle in the G2/M phase
IC50 [8]: 15.2 ± 0.8 µM
IC50 [9]: 0.54 ± 0.07 µM
expression of BAX compared to the DMSO control [10]: decreases
expression of BCL-2 compared to the DMSO control [10]: increases
fibroblast migration (% of remission) [11]: lower compared to the positive control Dox
IC50 [12]: 31.36 ± 0.02 µM
cells (%) early apoptosis [13]: 47.3 ± 2.9%
cells (%) late apoptosis [13]: 22.7 ± 4.6%
cells (%) necrosis [13]: 0.3 ± 0.4%
cells (%) viable [13]: 29.7 ± 6.3%
percentage of apoptosis (early + late) [13]: 65 to 70%
fold increase in apoptotic cells, normalized to DMSO [13]: ~6.4 fold
apparent binding constant (Kapp) [14]: 1.23 × 10^6 M^–1
Stern–Volmer quenching constant KSV [14]: 2450 M⁻¹

COc1ccc(-c2cc(-c3ccccn3)nc(-c3ccccn3)c2)c2ccccc12.COc1ccc(-c2cc(-c3ccccn3)nc(-c3ccccn3)c2)c2ccccc12.F[P-](F)(F)(F)(F)F.F[P-](F)(F)(F)(F)F.[Cl][Cu+].[Cl][Cu+] [complex 3, [Cu2Cl2(4′-(4-Methoxy-1-naphthyl)-terpy)2](PF6)2]
IC50 [2]: 0.15 ± 0.01 µM
concentration at which the interaction with pDNA reaches saturation [3]: 50 μM
pDNA cleavage mode [3]: single strands
effect of NaN3 (singlet oxygen scavenger) on pDNA cleavage by the complex [3]: partially reversed
IC50 [4]: 0.13 ± 0.02 µM
maximum absorbances after 24 or 48 h compared to 0 h (reduction of solubility) [5]: slight decrease
formation of new blood vessels after 24 h [6]: antiangiogenic potential
formation of new blood vessels after 48 h [6]: greater decrease in the % of blood vessels formed
cell cycle progression after 12 h [7]: delays cell cycle progression in the G2/M phase
cell cycle progression after 18 h [7]: delay in cycle progression in the G0/G1 phase
IC50 [8]: 6.35 ± 0.12 µM
IC50 [9]: 0.66 ± 0.07 µM
expression of BAX compared to the DMSO control [10]: decreases
expression of BCL-2 compared to the DMSO control [10]: increases
fibroblast migration (% of remission) [11]: lower compared to the positive control Dox
IC50 [12]: 6.24 ± 0.03 µM
cells (%) early apoptosis [13]: 51.3 ± 5.7%
cells (%) late apoptosis [13]: 14.9 ± 3.6%
cells (%) necrosis [13]: 0.2 ± 0.2%
cells (%) viable [13]: 33.7 ± 3.6%
percentage of apoptosis (early + late) [13]: 65 to 70%
fold increase in apoptotic cells, normalized to DMSO [13]: ~6.4 fold
apparent binding constant (Kapp) [14]: 3.07 × 10^6 M^–1
Stern–Volmer quenching constant KSV [14]: 6060 M⁻¹

F[P-](F)(F)(F)(F)F.F[P-](F)(F)(F)(F)F.[Cl][Cu].[Cl][Cu].c1ccc(-c2cc(-c3ccccn3)nc(-c3ccccn3)c2)nc1.c1ccc(-c2cc(-c3ccccn3)nc(-c3ccccn3)c2)nc1 [complex 7, [Cu2Cl2(4′-(2-Pyridynyl)-terpy)2](PF6)2]
IC50 [2]: 0.19 ± 0.01 µM
concentration at which the interaction with pDNA reaches saturation [3]: 100 μM
pDNA cleavage mode [3]: single and double strands
effect of NaN3 (singlet oxygen scavenger) on pDNA cleavage by the complex [3]: almost completely reversed
IC50 [4]: 0.23 ± 0.01 µM
formation of new blood vessels after 24 h [6]: no pro- or antiangiogenic effect
formation of new blood vessels after 48 h [6]: antiangiogenic effect
cell cycle progression after 12 h [7]: delays cell cycle progression in the G2/M phase
cell cycle progression after 18 h [7]: delay in cycle progression in the G0/G1 phase
cell cycle progression after 24 h [7]: delay the cycle in the G2/M phase
IC50 [8]: 30.48 ± 0.19 µM
IC50 [9]: 1.13 ± 0.2 µM
expression of BAX compared to the DMSO control [10]: decreases
expression of BCL-2 compared to the DMSO control [10]: increases
IC50 [12]: 16.08 ± 0.05 µM
cells (%) early apoptosis [13]: 37.4 ± 7.4%
cells (%) late apoptosis [13]: 9.0 ± 2.6%
cells (%) necrosis [13]: 1.1 ± 0.5%
cells (%) viable [13]: 52.5 ± 6.7%
percentage of apoptosis (early + late) [13]: ~46%
fold increase in apoptotic cells, normalized to DMSO [13]: 5 fold
apparent binding constant (Kapp) [14]: 1.16 × 10^6 M^–1
Stern–Volmer quenching constant KSV [14]: 2320 M⁻¹
